Measurements: PubChem BioAssay (NCI)
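A five-concentration, 48-hour dose response in 96-well plates underlies each endpoint, interpolated linearly between surrounding concentrations. The concentration for full growth arrest is given as TGI.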

Tests used:
Assay in all cases: growth of human tumour cells (NCI), 48 h
CCRF-CEM leukemia = tested on: CCRF-CEM leukemia
SF-295 CNS = tested on: SF-295 CNS
COLO 205 colon = tested on: COLO 205 colon
IGROV1 ovarian = tested on: IGROV1 ovarian
RPMI-8226 leukemia = tested on: RPMI-8226 leukemia
PC-3 prostate = tested on: PC-3 prostate
MDA-MB-231 breast = tested on: MDA-MB-231 breast
UO-31 renal = tested on: UO-31 renal
M14 melanoma = tested on: M14 melanoma
MOLT-4 leukemia = tested on: MOLT-4 leukemia
MDA-N = tested on: MDA-N
KM12 colon = tested on: KM12 colon
HOP-62 NSCLC = tested on: HOP-62 NSCLC
DU-145 prostate = tested on: DU-145 prostate
HCT-15 colon = tested on: HCT-15 colon
ACHN renal = tested on: ACHN renal
BT-549 breast = tested on: BT-549 breast
786-0 renal = tested on: 786-0 renal
UACC-62 melanoma = tested on: UACC-62 melanoma
OVCAR-5 ovarian = tested on: OVCAR-5 ovarian
SK-MEL-28 melanoma = tested on: SK-MEL-28 melanoma
MALME-3M melanoma = tested on: MALME-3M melanoma
HS 578T breast = tested on: HS 578T breast
SF-539 CNS = tested on: SF-539 CNS
OVCAR-4 ovarian = tested on: OVCAR-4 ovarian
SF-268 CNS = tested on: SF-268 CNS
MDA-MB-435 = tested on: MDA-MB-435
K-562 leukemia = tested on: K-562 leukemia
SNB-19 CNS = tested on: SNB-19 CNS
HL-60(TB) leukemia = tested on: HL-60(TB) leukemia
SNB-75 CNS = tested on: SNB-75 CNS
EKVX NSCLC = tested on: EKVX NSCLC
HCT-116 colon = tested on: HCT-116 colon
OVCAR-8 ovarian = tested on: OVCAR-8 ovarian
A498 renal = tested on: A498 renal
NCI-H460 lung = tested on: NCI-H460 lung
SK-MEL-5 melanoma = tested on: SK-MEL-5 melanoma
NCI-H226 lung = tested on: NCI-H226 lung
UACC-257 melanoma = tested on: UACC-257 melanoma
SW-620 colon = tested on: SW-620 colon
HT29 colon = tested on: HT29 colon
NCI-H522 lung = tested on: NCI-H522 lung
HOP-92 NSCLC = tested on: HOP-92 NSCLC
SK-MEL-2 melanoma = tested on: SK-MEL-2 melanoma
TK-10 renal = tested on: TK-10 renal
NCI-H23 lung = tested on: NCI-H23 lung
RXF 393 renal = tested on: RXF 393 renal
U251 CNS = tested on: U251 CNS
A549 NSCLC = tested on: A549 NSCLC
NCI/ADR-RES ovarian = tested on: NCI/ADR-RES ovarian
OVCAR-3 ovarian = tested on: OVCAR-3 ovarian
T-47D breast = tested on: T-47D breast
HCC-2998 colon = tested on: HCC-2998 colon
SN12C renal = tested on: SN12C renal
MCF7 breast = tested on: MCF7 breast
SR leukemia = tested on: SR leukemia
CAKI-1 renal = tested on: CAKI-1 renal

For `COc1ccc(N=NC(=O)NC(CC(C)C)C(=O)NC(C)C(=O)O)cc1` (configuration not stated), the TGI (CCRF-CEM leukemia) was greater than 100 µM, the TGI (SF-295 CNS) was greater than 100 µM and the TGI (COLO 205 colon) was 16.3 µM. It also gave a TGI (IGROV1 ovarian) greater than 100 µM, a TGI (RPMI-8226 leukemia) greater than 100 µM and a TGI (PC-3 prostate) greater than 100 µM. For the same compound, the TGI (MDA-MB-231 breast) was greater than 100 µM, the TGI (UO-31 renal) was greater than 26.6 µM and the TGI (M14 melanoma) was greater than 100 µM. It also gave a TGI (MOLT-4 leukemia) greater than 100 µM, a TGI (MDA-N) greater than 100 µM and a TGI (KM12 colon) greater than 100 µM. The TGI (HOP-62 NSCLC) was greater than 100 µM, the TGI (DU-145 prostate) was greater than 100 µM and the TGI (HCT-15 colon) was greater than 100 µM. The TGI (ACHN renal) was greater than 100 µM, the TGI (BT-549 breast) was greater than 100 µM and the TGI (786-0 renal) was greater than 100 µM. The TGI (UACC-62 melanoma) was greater than 100 µM, the TGI (OVCAR-5 ovarian) was greater than 100 µM and the TGI (SK-MEL-28 melanoma) was greater than 100 µM. It also gave a TGI (MALME-3M melanoma) greater than 100 µM, a TGI (HS 578T breast) greater than 100 µM and a TGI (SF-539 CNS) of 14.4 µM. It also gave a TGI (OVCAR-4 ovarian) greater than 100 µM, a TGI (SF-268 CNS) greater than 100 µM and a TGI (MDA-MB-435) greater than 100 µM. It also gave a TGI (K-562 leukemia) greater than 38.4 µM, a TGI (SNB-19 CNS) greater than 100 µM and a TGI (HL-60(TB) leukemia) greater than 100 µM. The TGI (SNB-75 CNS) was greater than 100 µM, the TGI (EKVX NSCLC) was greater than 100 µM and the TGI (HCT-116 colon) was greater than 100 µM. For the same compound, the TGI (OVCAR-8 ovarian) was greater than 100 µM, the TGI (A498 renal) was greater than 100 µM and the TGI (NCI-H460 lung) was greater than 89 µM. The TGI (SK-MEL-5 melanoma) was greater than 100 µM, the TGI (NCI-H226 lung) was greater than 100 µM and the TGI (UACC-257 melanoma) was greater than 100 µM. The TGI (SW-620 colon) was greater than 100 µM, the TGI (HT29 colon) was greater than 100 µM and the TGI (NCI-H522 lung) was greater than 100 µM. The TGI (HOP-92 NSCLC) was greater than 100 µM, the TGI (SK-MEL-2 melanoma) was greater than 100 µM and the TGI (TK-10 renal) was greater than 100 µM. It also gave a TGI (NCI-H23 lung) greater than 100 µM, a TGI (RXF 393 renal) greater than 100 µM and a TGI (U251 CNS) greater than 100 µM. For the same compound, the TGI (A549 NSCLC) was greater than 51.2 µM, the TGI (NCI/ADR-RES ovarian) was greater than 100 µM and the TGI (OVCAR-3 ovarian) was greater than 100 µM. For the same compound, the TGI (T-47D breast) was greater than 45.3 µM, the TGI (HCC-2998 colon) was greater than 100 µM and the TGI (SN12C renal) was greater than 100 µM. The TGI (MCF7 breast) was greater than 100 µM, the TGI (SR leukemia) was greater than 100 µM and the TGI (CAKI-1 renal) was greater than 100 µM.
